Where a name gives a salt, the structure may show the parent alone. Read-outs that look alike come from different tables or passages of the source.
Tests used:
[1] = PK protocol, intravenous administration; type: in vivo, male Sprague Dawley rats; conditions: male, Sprague Dawley, plasma, rat; for Vd: read-out: Vdss
Procedure: Pharmacokinetic parameters were determined in male Sprague Dawley rats (Charles River, UK, 250-350 g; or Vital River Laboratory Animal Technology Co Ltd, Beijing, China, 7-9 weeks old). Animals were individually housed during the study and maintained under a 12 h light/dark cycle. Animals had free access to food and water.
For intravenous administration, compounds were formulated as a solution in water or DMSO:PBS [10:90] in 2 mL/kg dosing volume and administered via tail vein. For oral administration, compounds were formulated as a solution in DMSO:water [10:90] in 5 mL/kg dosing volume and administered orally.
Serial blood samples (about 120-300 μL) were taken from each animal at each of 8 time-points post dose (0.083, 0.25, 0.5, 1, 2, 4, 8 and 24 h) or at each of 12 time-points post dose (0.03, 0.1, 0.17, 0.25, 0.5, 1, 2, 4, 6, 8, 12 and 24 h) or pre-dose and at each of 9 time-points post dose (0.25, 0.5, 1, 2, 4, 6, 8, 12 and 24 h). Samples were held on ice for no longer than 30 minutes before centrifugation (10,000 rpm (8,385 g) for 3 minutes; or 5,696 rpm (3,000 g) for 15 minutes) for plasma generation. Plasma was frozen on dry ice prior to bioanalysis. PK parameters were generated from LC-MS/MS data using Dotmatics or Phoenix WinNonlin 6.3 software.

[2] = molecular target: T1, NLRP3 (Homo sapiens, UniProt Q96P20); experiment: THP-1 cells pyroptosis assay (LPS + nigericin, resazurin readout; THP IC50); type: cell-based; design: Seed THP-1 cells (25,000 cells/well) containing 1.0 μg/ml LPS in 40 μl of RPMI medium; host or cells: THP-1 cells
How it was run: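 IC50 from 4-parameter fit of resazurin fluorescence (100 μM, 1-2 hrs), reflecting surviving cells after pyroptosis. LPS-primed (1 μg/ml) THP-1 cells in FBS-free RPMI got compound for 3 hrs at 37° C (top 10 μM, half-log, 8 points), then nigericin 5 μM for 1 hr.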

[3] = molecular target: T1, NLRP3; experiment: Human whole blood IL1β release assay (LPS + nigericin, AlphaLisa IL-1β; HWB IC50); type: cell-based; design: Human whole blood in Li-heparin tubes was obtained from healthy donors from a volunteer donor panel; from tissue; host or cells: human whole blood from healthy donors; conditions: IL-1β release
How it was run: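 IL-1β in plasma supernatant quantified by AlphaLisa after nigericin (10 μM final, 1 h, 37 °C) triggering of human whole blood that had been preincubated 3 h with LPS (1 μg/ml) plus compound (half-log, 8 points, from 10 μM). IC50 by variable-slope four-parameter regression.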

T1 sequence (Q96P20 whole entry): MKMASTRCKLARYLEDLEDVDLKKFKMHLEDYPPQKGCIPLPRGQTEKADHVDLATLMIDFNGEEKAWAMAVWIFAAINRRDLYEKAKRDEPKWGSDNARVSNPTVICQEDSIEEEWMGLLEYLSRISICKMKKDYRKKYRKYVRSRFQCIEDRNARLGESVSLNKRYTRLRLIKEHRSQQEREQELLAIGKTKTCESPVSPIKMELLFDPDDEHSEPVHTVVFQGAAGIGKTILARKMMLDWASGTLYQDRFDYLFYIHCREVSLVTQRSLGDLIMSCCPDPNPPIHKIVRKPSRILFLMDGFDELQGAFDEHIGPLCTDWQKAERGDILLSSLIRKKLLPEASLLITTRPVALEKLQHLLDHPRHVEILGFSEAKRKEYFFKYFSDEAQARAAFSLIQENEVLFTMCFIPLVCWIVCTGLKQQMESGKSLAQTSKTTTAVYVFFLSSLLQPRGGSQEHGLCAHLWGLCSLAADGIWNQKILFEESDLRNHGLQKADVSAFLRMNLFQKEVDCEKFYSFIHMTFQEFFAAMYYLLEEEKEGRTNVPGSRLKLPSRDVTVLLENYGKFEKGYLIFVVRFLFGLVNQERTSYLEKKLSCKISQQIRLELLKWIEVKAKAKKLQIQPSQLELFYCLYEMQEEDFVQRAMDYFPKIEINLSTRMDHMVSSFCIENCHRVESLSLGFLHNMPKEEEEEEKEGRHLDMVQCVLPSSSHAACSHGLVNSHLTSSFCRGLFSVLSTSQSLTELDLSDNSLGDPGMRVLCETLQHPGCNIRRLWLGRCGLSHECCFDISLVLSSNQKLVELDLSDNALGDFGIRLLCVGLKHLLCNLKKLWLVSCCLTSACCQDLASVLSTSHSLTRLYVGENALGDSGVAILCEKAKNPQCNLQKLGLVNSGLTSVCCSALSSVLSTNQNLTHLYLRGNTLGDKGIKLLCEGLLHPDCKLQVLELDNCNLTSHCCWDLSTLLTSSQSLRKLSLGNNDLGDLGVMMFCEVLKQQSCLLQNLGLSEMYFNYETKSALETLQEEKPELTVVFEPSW

| AUC ([1]; dose 1 mg/kg) | clearance ([1]; dose 1 mg/kg) | half-life ([1]; dose 1 mg/kg) | Vd ([1]; dose 1 mg/kg) | IC50 [2] | IC50 [3] | AUC ([1]; dose 1.98 mg/kg) | clearance ([1]; dose 1.98 mg/kg) | half-life ([1]; dose 1.98 mg/kg) | Vd ([1]; dose 1.98 mg/kg) | SMILES |
| --- | --- | --- | --- | --- | --- | --- | --- | --- | --- | --- |
| 259 ng·h/mL | 65.6 mL/min/kg | 0.5 h | 0.98 L/kg | ≤ 500 nM | ≤ 500 nM |  |  |  |  | Cc1cc(-c2cc(F)cc(C(C)C)c2NC(=O)NS(=O)(=O)c2cc(CN(C)C)n(C)n2)n(C)n1 [Example 45] |
| 600 ng·h/mL | 27.8 mL/min/kg | 3.7 h | 3.68 L/kg | ≤ 500 nM | ≤ 500 nM |  |  |  |  | CC#Cc1cc(-c2cc(F)cc(C(C)C)c2NC(=O)NS(=O)(=O)c2ccn(C(C)C)n2)ccn1 [Example 51, N-((4-Fluoro-2-isopropyl-6-(2-(prop-1-yn-1-yl)pyridin-4-yl)phenyl)carbamoyl)-1-isopropyl-1H-pyrazole-3-sulfonamide] |
| 200 ng·h/mL | 85.4 mL/min/kg | 1.6 h | 2.5 L/kg | ≤ 500 nM | ≤ 500 nM |  |  |  |  | CC(C)c1cc(F)cc(-c2ccnc(C#N)c2)c1NC(=O)NS(=O)(=O)c1cn(C(C)C)cn1 [Example 54, N-((2-(2-Cyanopyridin-4-yl)-4-fluoro-6-isopropylphenyl)carbamoyl)-1-isopropyl-1H-imidazole-4-sulfonamide] |
| 1860 ng·h/mL | 9.8 mL/min/kg | 6.9 h | 3.25 L/kg | ≤ 500 nM | ≤ 1000 nM |  |  |  |  | COc1cc(-c2cc(F)c3c(c2NC(=O)NS(=O)(=O)c2ccn(C(C)C)n2)CCC3)ccn1 [Example 55, N-((7-Fluoro-5-(2-methoxypyridin-4-yl)-2,3-dihydro-1H-inden-4-yl)carbamoyl)-1-isopropyl-1H-pyrazole-3-sulfonamide] |
| 300 ng·h/mL | 56.3 mL/min/kg | 1 h | 1.22 L/kg | ≤ 500 nM | ≤ 500 nM |  |  |  |  | CC(C)c1cc(F)cc(-c2cccnc2)c1NC(=O)NS(=O)(=O)c1ccn(C[C@@H](C)O)n1 [Example 60, (R)-N-((4-Fluoro-2-isopropyl-6-(pyridin-3-yl)phenyl)carbamoyl)-1-(2-hydroxypropyl)-1H-pyrazole-3-sulfonamide] |
| 346 ng·h/mL | 48.1 mL/min/kg | 2.2 h | 1.77 L/kg | ≤ 500 nM |  |  |  |  |  | COc1cc(-c2cc(F)cc(C(C)C)c2NC(=O)NS(=O)(=O)c2cncc(N(C)C)n2)ccn1 [Example 103, 6-(Dimethylamino)-N-((4-fluoro-2-isopropyl-6-(2-methoxypyridin-4-yl)phenyl)carbamoyl)pyrazine-2-sulfonamide] |
| 841 ng·h/mL | 19.8 mL/min/kg | 1.2 h | 1.04 L/kg | ≤ 500 nM |  |  |  |  |  | COc1cc(-c2ccc3c(c2NC(=O)NS(=O)(=O)c2cncc(N(C)C)n2)CCC3)ccn1 [Example 104, 6-(Dimethylamino)-N-((5-(2-methoxypyridin-4-yl)-2,3-dihydro-1H-inden-4-yl)carbamoyl)pyrazine-2-sulfonamide] |

The remaining lines, values behind:

| SMILES | AUC ([1]; dose 1 mg/kg) | clearance ([1]; dose 1 mg/kg) | half-life ([1]; dose 1 mg/kg) | Vd ([1]; dose 1 mg/kg) | IC50 [2] | IC50 [3] | AUC ([1]; dose 1.98 mg/kg) | clearance ([1]; dose 1.98 mg/kg) | half-life ([1]; dose 1.98 mg/kg) | Vd ([1]; dose 1.98 mg/kg) |
| --- | --- | --- | --- | --- | --- | --- | --- | --- | --- | --- |
| CC(C)c1cc(F)cc(-c2cccnc2)c1NC(=O)NS(=O)(=O)c1ccn(C(C)C)n1 [Example 1, N-((4-Fluoro-2-iso-propyl-6-(pyridin-3-yl)phenyl)carbamoyl)-1-iso-propyl-1H-pyrazole-3-sulfonamide] | 341 ng·h/mL | 49.1 mL/min/kg | 3.3 h | 4.49 L/kg | ≤ 500 nM | ≤ 500 nM |  |  |  |  |
| CC(C)c1cc(F)cc(-c2ccncc2)c1NC(=O)NS(=O)(=O)c1ccn(C(C)C)n1 [Example 10, N-((4-Fluoro-2-iso-propyl-6-(pyridin-4-yl)phenyl)carbamoyl)-1-iso-propyl-1H-pyrazole-3-sulfonamide, partial ammonium salt] |  |  |  |  | ≤ 500 nM | ≤ 500 nM | 806 ng·h/mL | 40.9 mL/min/kg | 3.8 h | 7.14 L/kg |
| CC(C)c1cc(F)cc(-c2ccnc(O)c2)c1NC(=O)NS(=O)(=O)c1ccn(C(C)C)n1 [Example 25, N-((4-Fluoro-2-(2-hydroxypyridin-4-yl)-6-iso-propylphenyl)carbamoyl)-1-iso-propyl-1H-pyrazole-3-sulfonamide] | 412 ng·h/mL | 41.9 mL/min/kg | 0.4 h | 0.41 L/kg | ≤ 500 nM | ≤ 500 nM |  |  |  |  |
| CC(C)c1cc(F)cc(-c2ccnc(C#N)c2)c1NC(=O)NS(=O)(=O)c1ccn(C(C)C)n1 [Example 28, N-((2-(2-Cyanopyridin-4-yl)-4-fluoro-6-iso-propylphenyl)carbamoyl)-1-iso-propyl-1H-pyrazole-3-sulfonamide] | 386 ng·h/mL | 43.3 mL/min/kg | 1.2 h | 1.07 L/kg | ≤ 500 nM | ≤ 500 nM |  |  |  |  |
| CC(C)c1cc(F)cc(C2CCOCC2)c1NC(=O)NS(=O)(=O)c1cc(C(=O)N(C)C)n(C)n1 [Example 30, 3-(N-((4-Fluoro-2-iso-propyl-6-(tetrahydro-2H-pyran-4-yl)phenyl)carbamoyl)sulfamoyl)-N,N,1-trimethyl-1H-pyrazole-5-carboxamide, sodium salt] | 182 ng·h/mL | 91.3 mL/min/kg | 2.3 h | 2.72 L/kg | ≤ 5000 nM | ≤ 500 nM |  |  |  |  |
| CC(C)c1cc(F)cc(-c2cccnc2)c1NC(=O)NS(=O)(=O)c1cc(C(=O)N(C)C)n(C)n1 [Example 33, 3-(N-((4-Fluoro-2-iso-propyl-6-(pyridin-3-yl)phenyl)carbamoyl)sulfamoyl)-N,N,1-trimethyl-1H-pyrazole-5-carboxamide, sodium salt] | 274 ng·h/mL | 60.7 mL/min/kg | 6.3 h | 3.95 L/kg | ≤ 500 nM | ≤ 500 nM |  |  |  |  |
| CC(C)c1cc(F)cc(-c2cnn(C)c2)c1NC(=O)NS(=O)(=O)c1cc(C(=O)N(C)C)n(C)n1 [Example 34, 3-(N-((4-Fluoro-2-iso-propyl-6-(1-methyl-1H-pyrazol-4-yl)phenyl)carbamoyl)sulfamoyl)-N,N,1-trimethyl-1H-pyrazole-5-carboxamide, sodium salt] | 661 ng·h/mL | 25.2 mL/min/kg | 12.1 h | 3.03 L/kg | ≤ 1000 nM | ≤ 500 nM |  |  |  |  |
| COc1cc(-c2cc(F)cc(C(C)C)c2NC(=O)NS(=O)(=O)c2cc(CN(C)C)n(C)n2)ccn1 [Example 36, 5-((Dimethylamino)methyl)-N-((4-fluoro-2-iso-propyl-6-(2-methoxypyridin-4-yl)phenyl)carbamoyl)-1-methyl-1H-pyrazole-3-sulfonamide] | 356 ng·h/mL | 47.6 mL/min/kg | 0.5 h | 0.8 L/kg | ≤ 500 nM | ≤ 500 nM |  |  |  |  |
| COc1cc(-c2cc(F)cc(C(C)C)c2NC(=O)NS(=O)(=O)c2cc(CN(C)C)n(C(C)C)n2)ccn1 [Example 37, 5-((Dimethylamino)methyl)-N-((4-fluoro-2-iso-propyl-6-(2-methoxypyridin-4-yl)phenyl)carbamoyl)-1-iso-propyl-1H-pyrazole-3-sulfonamide] | 248 ng·h/mL | 67.2 mL/min/kg | 0.3 h | 1.32 L/kg | ≤ 500 nM | ≤ 500 nM |  |  |  |  |
| CC(C)c1cc(F)cc(-c2cccc(C#N)c2)c1NC(=O)NS(=O)(=O)c1cc(CN(C)C)n(C)n1 [Example 38, N-((3′-Cyano-5-fluoro-3-iso-propyl-[1,1′-biphenyl]-2-yl)carbamoyl)-5-((dimethylamino)methyl)-1-methyl-1H-pyrazole-3-sulfonamide] | 375 ng·h/mL | 51.5 mL/min/kg | 1.2 h | 1.14 L/kg | ≤ 500 nM | ≤ 500 nM |  |  |  |  |
| CC(C)c1cc(F)cc(-c2cccnc2)c1NC(=O)NS(=O)(=O)c1cc(CN(C)C)n(C)n1 [Example 44, 5-((Dimethylamino)methyl)-N-((4-fluoro-2-isopropyl-6-(pyridin-3-yl)phenyl)carbamoyl)-1-methyl-1H-pyrazole-3-sulfonamide] | 259 ng·h/mL | 64.9 mL/min/kg | 0.5 h | 0.75 L/kg | ≤ 500 nM | ≤ 500 nM |  |  |  |  |
